From patent US20060258729A1, “Antibacterial pyrazole carboxylic acid hydrazides” (priority 2002, published 2006)
In brackets after ≈: the same amount, converted by molar mass.

Experiments:
S. aureus Smith strain = assay: Inhibition of bacterial growth (MIC), Sm; type: cell-based, Staphylococcus aureus; details: 16 to 18 hours, 37° C.; for MIC: Staphylococcus aureus, read-out: Minimum Inhibitory Concentration for Bacterial Growth, Sm
Description: (§1) Each compound was assayed against a panel of a strain of Bacillus subtilis, of strains of antibiotic-resistant and sensitive Enterococcus and Staphylococcus species, and of a strain of the Gram-negative bacterium Escherichia coli. Compounds were dissolved in DMSO at 100× the desired highest concentration and added to one well of a 96-well microassay plate. Two-fold serial drug dilutions were made across the plate in DMSO to yield 11 concentrations (usually 80-0.078 μg/mL) plus an untreated control. Drugs were then transferred to fresh plates using 1.5 μL per well. Log phase cultures were diluted to yield a concentration of 1×10^5 colony forming units/mL in either LB or BHI medium and transferred to the plates containing drug for a final volume of 150 μL. Each well, including the DMSO controls, contained a final concentration of 1% DMSO. Plates were incubated with shaking at 37° C. for 16 to 18 hours. Cell growth was determined by measuring optical density (570 nm, 1 cm path length) in a microplate reader. MIC (minimum inhibitory concentration) is equivalent to the lowest concentration at which growth is not observed. The bacterial strains and MIC determinations have been well characterized and are described elsewhere (Tarantino et al., Antimicrob. Agents Chemother., 43: 1982-1987 (1999); Daly et al., Antimicrob. Agents Chemother., 44: 2217-2221 (2000)).

B. subtilis pol IIIE [1] = biological target: T1, B. subtilis pol IIIE (Bacillus subtilis, UniProt O34623); assay: DNA polymerase assay, B. subtilis pol IIIE; type: biochemical
T1 construct: made in house

[2] = tested on: Enterococcus faecalis strain 29212; assay: Inhibition of bacterial growth (MIC), Efcl; type: cell-based; details: 16 to 18 hours, 37° C.; for MIC: read-out: Minimum Inhibitory Concentration for Bacterial Growth, Efcl
Description: as §1

[3] = tested on: Bacillus subtilis strain BD54; assay: Inhibition of bacterial growth (MIC), Bs; type: cell-based; details: 16 to 18 hours, 37° C.; for MIC: read-out: Minimum Inhibitory Concentration for Bacterial Growth, Bs
Description: as §1

[4] = tested on: E. faecium clinical isolate; assay: Inhibition of bacterial growth (MIC), Efcm; type: cell-based; details: 16 to 18 hours, 37° C.; for MIC: Enterococcus faecium, read-out: Minimum Inhibitory Concentration for Bacterial Growth, Efcm
Description: as §1

[5] = tested on: vancomycin-resistant Enterococcus strain B42762; assay: Inhibition of bacterial growth (MIC), VRE; type: cell-based; details: 16 to 18 hours, 37° C.; for MIC: VRE, read-out: Minimum Inhibitory Concentration for Bacterial Growth, VRE
Description: as §1

[6] = tested on: methicillin-resistant S. aureus strain 1094; assay: Inhibition of bacterial growth (MIC), MRSA; type: cell-based, Staphylococcus aureus; details: 16 to 18 hours, 37° C.; for MIC: Staphylococcus aureus, MRSA, read-out: Minimum Inhibitory Concentration for Bacterial Growth, MRSA
Description: as §1

B. subtilis pol IIIE [7] = biological target: T1, B. subtilis pol IIIE; assay: DNA polymerase assay, B. subtilis pol IIIE; type: biochemical; details: for inhibition at 80 µg/mL: read-out: Percent Enzymatic Inhibition B. subtilis pol IIIE; for B. subtilis Pol IIIE IC50, 4 dNTPs / IC50: in the presence of all four dNTP substrates; for IC50: B. subtilis Pol IIIE IC50, 4 dNTPs
Description: (§2) Recombinant, purified pol IIIC and pol IIIE from Bacillus subtilis were obtained using known methods (Hammond et al., Gene 98: 29-36 (1991), regarding pol IIIC; Barnes et al., J. Bacteriol. 184, 3834-3838 (2002), regarding pol IIIE). Recombinant, purified pol IIIE from Escherichia coli was obtained from a commercial source (Enzyco, Denver, Colo.). The enzyme assays were performed in 96-well plate format using the same assay mix for all three enzymes. Each 25 μL assay contained 30 mM Tris, pH 7.5, 10 mM magnesium acetate, 4 mM dithiothreitol, 20% glycerol, with 10 μM dATP, dCTP, dGTP and dTTP (3H-labelled at 1.44 Ci/mmole) and 0.4 mg/mL activated calf thymus DNA as substrates. Dilutions of compounds were added to the plate in 1% DMSO (1 μL/well). Assays were initiated by the addition of 0.025 to 0.06 units of enzyme (1 unit is the amount required to incorporate 250 pmoles of [^3H] dTMP in a standard assay), incubated for 10 min at 30° C. and terminated by the addition of 200 μL of cold 10% trichloroacetic acid, 10 mM sodium pyrophosphate. Precipitated labeled DNA was collected on glass fiber filter plates that had been pre-wet with ice cold 1 M HCl, 100 mM sodium pyrophosphate. The plates were washed with the HCl solution followed by ice cold 90% ethanol and then dried and counted in a liquid scintillation counter. The calculated IC50 is the concentration needed to inhibit 50% of the DNA polymerase activity in the presence of all four dNTP substrates. In addition, percent inhibition values are calculated as the percent reduction in the activity of a DMSO (diluent) control.

E. coli pol IIIE = biological target: T2, E. coli pol IIIE (Escherichia coli, UniProt P10443); assay: DNA polymerase assay, E. coli pol IIIE; type: biochemical; details: 80 μg/mL (190-260 μM) final concentration, all four dNTPs; for inhibition at 80 µg/mL: read-out: Percent Enzymatic Inhibition E. coli pol IIIE
T2 construct: purchased Enzyco, Denver, Colo
Description: as §2

[8] = tested on: Escherichia coli strain J53; assay: Inhibition of bacterial growth (MIC), Ec; type: cell-based; details: 16 to 18 hours, 37° C.; for MIC: read-out: Minimum Inhibitory Concentration for Bacterial Growth, Ec
Description: as §1

[9] = tested on: Staphylococcus aureus strain IP 8; assay: Inhibition of bacterial growth (MIC), Sa; type: cell-based; details: 37° C.; for MIC: IP8, 16 to 18 hours, read-out: Minimum Inhibitory Concentration for Bacterial Growth, Sa
Description: as §1

B. subtilis pol IIIC = biological target: T3, B. subtilis pol IIIC (Bacillus subtilis, UniProt P13267); assay: DNA polymerase assay, B. subtilis pol IIIC; type: biochemical; details: for inhibition at 80 µg/mL / Percent Enzymatic Inhibition B. subtilis pol IIIC: 80 μg/mL (190-260 μM) final concentration, all four dNTPs; for inhibition at 80 µg/mL: read-out: Percent Enzymatic Inhibition B. subtilis pol IIIC
T3 construct: made in house
Description: as §2, with “Each 25 μL assay contained 30 mM Tris, pH 7.5, 10 mM magnesium acetate, 4 mM dithiothreitol, 20% glycerol, with 10 μM dATP, dCTP, dGTP and dTTP (3H-labelled at 1.44 Ci/mmole) and 0.4 mg/mL activated calf thymus DNA as substrates.” left out, “The calculated IC50 is the concentration needed to inhibit 50% of the DNA polymerase activity in the presence of all four dNTP substrates.” left out

[10] = B. subtilis Pol IIIE IC50, −dATP, in the absence of dATP
[11] = B. subtilis Pol IIIE IC50, −dCTP, in the absence of dCTP
[12] = B. subtilis Pol IIIE IC50, −dGTP, in the absence of dGTP
[13] = 80 μg/mL (190-260 μM) final concentration, all four dNTPs
[14] = B. subtilis Pol IIIC IC50, −dATP, in the absence of dATP
[15] = B. subtilis Pol IIIC IC50, −dCTP, in the absence of dCTP
[16] = B. subtilis Pol IIIC IC50, −dGTP, in the absence of dGTP
[17] = in the presence of all four dNTP substrates

T2 sequence (P10443 whole entry): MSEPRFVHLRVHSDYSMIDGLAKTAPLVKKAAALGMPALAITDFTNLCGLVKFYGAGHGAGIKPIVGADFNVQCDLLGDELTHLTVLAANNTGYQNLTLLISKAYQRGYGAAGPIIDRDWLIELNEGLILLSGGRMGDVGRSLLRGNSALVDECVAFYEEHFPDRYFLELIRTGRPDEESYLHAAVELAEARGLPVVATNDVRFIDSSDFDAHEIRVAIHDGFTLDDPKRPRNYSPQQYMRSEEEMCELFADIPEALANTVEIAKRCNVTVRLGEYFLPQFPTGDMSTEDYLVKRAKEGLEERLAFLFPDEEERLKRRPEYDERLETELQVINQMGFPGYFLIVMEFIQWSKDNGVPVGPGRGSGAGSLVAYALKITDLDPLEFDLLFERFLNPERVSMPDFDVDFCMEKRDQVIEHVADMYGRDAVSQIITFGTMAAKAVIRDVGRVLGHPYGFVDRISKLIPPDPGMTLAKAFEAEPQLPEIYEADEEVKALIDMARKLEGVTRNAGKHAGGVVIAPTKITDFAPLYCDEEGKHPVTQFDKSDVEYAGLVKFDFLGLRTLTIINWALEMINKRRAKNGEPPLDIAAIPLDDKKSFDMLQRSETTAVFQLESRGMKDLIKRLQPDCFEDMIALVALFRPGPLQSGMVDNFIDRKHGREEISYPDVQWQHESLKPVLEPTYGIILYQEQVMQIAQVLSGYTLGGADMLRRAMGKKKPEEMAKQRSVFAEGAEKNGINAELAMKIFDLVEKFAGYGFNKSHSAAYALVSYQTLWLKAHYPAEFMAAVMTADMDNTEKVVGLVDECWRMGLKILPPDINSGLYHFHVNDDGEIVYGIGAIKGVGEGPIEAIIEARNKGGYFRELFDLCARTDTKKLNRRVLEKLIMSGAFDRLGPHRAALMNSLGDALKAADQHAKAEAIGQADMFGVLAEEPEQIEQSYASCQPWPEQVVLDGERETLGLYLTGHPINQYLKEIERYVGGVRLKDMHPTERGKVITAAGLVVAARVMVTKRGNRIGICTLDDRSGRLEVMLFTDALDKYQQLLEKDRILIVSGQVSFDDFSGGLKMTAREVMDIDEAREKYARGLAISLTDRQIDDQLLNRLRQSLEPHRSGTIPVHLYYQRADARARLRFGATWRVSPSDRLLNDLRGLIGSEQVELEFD
T1 sequence (O34623 whole entry): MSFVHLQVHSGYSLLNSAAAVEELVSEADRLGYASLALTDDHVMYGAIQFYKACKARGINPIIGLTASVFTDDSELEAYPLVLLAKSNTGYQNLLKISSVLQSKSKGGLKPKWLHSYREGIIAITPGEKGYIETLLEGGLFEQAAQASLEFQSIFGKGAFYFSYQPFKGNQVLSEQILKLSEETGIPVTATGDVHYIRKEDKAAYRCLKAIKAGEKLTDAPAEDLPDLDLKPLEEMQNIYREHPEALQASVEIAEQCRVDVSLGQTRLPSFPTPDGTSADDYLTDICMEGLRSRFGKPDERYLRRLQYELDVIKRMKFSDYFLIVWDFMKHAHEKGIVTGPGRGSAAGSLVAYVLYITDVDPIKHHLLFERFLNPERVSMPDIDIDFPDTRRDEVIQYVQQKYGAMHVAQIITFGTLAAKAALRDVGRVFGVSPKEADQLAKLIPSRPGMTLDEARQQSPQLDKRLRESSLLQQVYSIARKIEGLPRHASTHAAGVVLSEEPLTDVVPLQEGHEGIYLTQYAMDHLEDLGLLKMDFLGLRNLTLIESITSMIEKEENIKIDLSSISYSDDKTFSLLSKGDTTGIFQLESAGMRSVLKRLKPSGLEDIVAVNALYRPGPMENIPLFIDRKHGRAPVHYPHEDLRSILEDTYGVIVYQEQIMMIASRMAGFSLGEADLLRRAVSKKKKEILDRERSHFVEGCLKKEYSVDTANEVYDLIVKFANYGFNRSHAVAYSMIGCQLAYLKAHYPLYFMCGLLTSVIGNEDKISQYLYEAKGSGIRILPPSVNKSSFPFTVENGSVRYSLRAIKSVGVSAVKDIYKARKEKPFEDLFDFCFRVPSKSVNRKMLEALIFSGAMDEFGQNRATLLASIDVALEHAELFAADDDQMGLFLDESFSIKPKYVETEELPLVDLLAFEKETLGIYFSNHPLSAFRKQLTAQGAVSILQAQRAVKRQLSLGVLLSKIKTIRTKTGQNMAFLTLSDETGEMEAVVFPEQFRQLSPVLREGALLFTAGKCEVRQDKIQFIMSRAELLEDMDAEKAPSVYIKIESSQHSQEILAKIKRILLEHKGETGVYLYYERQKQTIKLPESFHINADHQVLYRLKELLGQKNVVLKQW
T3 sequence (P13267 whole entry): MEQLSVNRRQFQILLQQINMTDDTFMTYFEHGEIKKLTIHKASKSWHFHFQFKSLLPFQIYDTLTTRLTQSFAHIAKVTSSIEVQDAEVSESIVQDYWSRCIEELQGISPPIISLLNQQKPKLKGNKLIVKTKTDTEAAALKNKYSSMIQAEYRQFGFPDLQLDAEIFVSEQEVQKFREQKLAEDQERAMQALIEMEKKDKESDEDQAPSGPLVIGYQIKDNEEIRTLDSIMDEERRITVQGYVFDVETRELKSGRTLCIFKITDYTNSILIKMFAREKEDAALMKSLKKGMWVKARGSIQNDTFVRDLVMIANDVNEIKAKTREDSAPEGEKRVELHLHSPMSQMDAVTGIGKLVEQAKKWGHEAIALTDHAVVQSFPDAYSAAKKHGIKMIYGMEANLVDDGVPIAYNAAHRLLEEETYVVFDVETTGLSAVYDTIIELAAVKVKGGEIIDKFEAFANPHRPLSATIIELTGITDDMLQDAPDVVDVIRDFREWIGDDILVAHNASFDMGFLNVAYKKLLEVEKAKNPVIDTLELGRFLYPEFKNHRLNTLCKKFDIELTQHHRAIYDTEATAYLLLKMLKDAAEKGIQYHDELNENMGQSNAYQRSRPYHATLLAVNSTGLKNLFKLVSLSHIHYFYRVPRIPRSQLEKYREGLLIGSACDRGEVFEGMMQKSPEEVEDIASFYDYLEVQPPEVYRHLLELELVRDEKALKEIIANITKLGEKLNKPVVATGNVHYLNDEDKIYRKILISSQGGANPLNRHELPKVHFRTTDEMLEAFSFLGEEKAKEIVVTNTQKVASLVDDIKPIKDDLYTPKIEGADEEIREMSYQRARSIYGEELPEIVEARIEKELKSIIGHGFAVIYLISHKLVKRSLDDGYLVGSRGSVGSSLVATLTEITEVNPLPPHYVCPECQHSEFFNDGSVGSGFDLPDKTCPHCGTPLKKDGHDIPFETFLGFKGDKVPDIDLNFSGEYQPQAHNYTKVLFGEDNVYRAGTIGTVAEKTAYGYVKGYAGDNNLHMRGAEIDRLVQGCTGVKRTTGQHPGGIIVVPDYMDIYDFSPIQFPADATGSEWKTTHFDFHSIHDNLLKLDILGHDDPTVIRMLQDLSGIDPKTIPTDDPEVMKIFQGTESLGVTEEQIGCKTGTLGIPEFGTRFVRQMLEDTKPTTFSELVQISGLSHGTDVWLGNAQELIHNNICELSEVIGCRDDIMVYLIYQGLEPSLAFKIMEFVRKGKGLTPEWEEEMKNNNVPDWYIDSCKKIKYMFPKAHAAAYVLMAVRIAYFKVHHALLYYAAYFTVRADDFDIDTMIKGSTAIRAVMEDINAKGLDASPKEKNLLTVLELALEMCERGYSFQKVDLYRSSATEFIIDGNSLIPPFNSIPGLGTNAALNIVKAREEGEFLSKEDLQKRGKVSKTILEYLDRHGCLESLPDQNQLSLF

Compound | MIC (S. aureus Smith strain) [µg/mL] | IC50 (B. subtilis pol IIIE [1]; [10]) [µM] | IC50 (B. subtilis pol IIIE [1]; [11]) [µM] | IC50 (B. subtilis pol IIIE [1]; [12]) [µM] | MIC [2] [µg/mL] | MIC [3] [µg/mL] | MIC [4] [µg/mL] | MIC [5] [µg/mL] | MIC [6] [µg/mL] | inhibition at 80 µg/mL (B. subtilis pol IIIE [7]; [13]) [%] | Percent Enzymatic Inhibition E. coli pol IIIE (E. coli pol IIIE) | MIC [8] [µg/mL] | MIC [9] [µg/mL] | inhibition at 80 µg/mL (B. subtilis pol IIIC) [%] | IC50 (B. subtilis pol IIIC; [14]) [µM] | IC50 (B. subtilis pol IIIC; [15]) [µM] | IC50 (B. subtilis pol IIIC; [16]) [µM] | B. subtilis Pol IIIC IC50, 4 dNTPs (B. subtilis pol IIIC; [17]) | IC50 (B. subtilis pol IIIE [7]) [µM] | also measured
COc1ccc(-c2cc(C(=O)NN=Cc3ccc(O)cc3)[nH]n2)cc1 [Compound 16] | > 80 | 117 | 156 | 318 | > 80 | > 80 | > 80 | 80 (≈ 238 µM) | > 80 | > 20 | Inactive | > 80 | > 80 | 9.9 | 89 | 96 | 60 | Inactive | – | B. subtilis Pol IIIE IC50, 4 dNTPs (B. subtilis pol IIIE [7]): Inactive
CCOc1ccc(-c2cc(C(=O)NN=Cc3ccc(O)c(OC)c3)[nH]n2)cc1 [Compound 19] | > 80 | > 841 | > 841 | > 841 | > 80 | 2.5 (≈ 6.57 µM) | > 80 | 10 (≈ 26.3 µM) | 5 (≈ 13.1 µM) | 10.1 | Inactive | > 80 | 80 (≈ 210 µM) | > 20 | 9 | 3.3 | 5.1 | – | > 841 | IC50 (B. subtilis pol IIIC; B. subtilis Pol IIIC IC50, 4 dNTPs, in the presence of all four dNTP substrates): 23 µM
O=C(NN=Cc1ccc(O)cc1O)c1cc(-c2ccccc2)n[nH]1 [Compound 4] | 60 (≈ 186 µM) | 278 | 347 | 183 | > 80 | 40 (≈ 124 µM) | 30 (≈ 93.1 µM) | > 80 | 40 (≈ 124 µM) | > 20 | Inactive | > 80 | 30 (≈ 93.1 µM) | 15.8 | 81 | 228 | 98 | Inactive | 699 | –
COc1cc(C=NNC(=O)c2cc(-c3ccccc3)n[nH]2)ccc1O [Compound 5] | 40 (≈ 119 µM) | 213 | 383 | 111 | 40 (≈ 119 µM) | 60 (≈ 178 µM) | 80 (≈ 238 µM) | 40 (≈ 119 µM) | 40 (≈ 119 µM) | > 20 | – | > 80 | 20 (≈ 59.5 µM) | 4.8 | 41 | 265 | 89 | Inactive | 205 | inhibition at 80 µg/mL (E. coli pol IIIE): 2%
COc1cccc(-c2cc(C(=O)NN=Cc3ccc(OC)c(OC)c3)[nH]n2)c1 [Compound 2] | 20 (≈ 52.6 µM) | 57 | 104 | 78 | 40 (≈ 105 µM) | 20 (≈ 52.6 µM) | 60 (≈ 158 µM) | 40 (≈ 105 µM) | 20 (≈ 52.6 µM) | > 20 | – | > 80 | 10 (≈ 26.3 µM) | – | 99 | 287 | 406 | Inactive | 604 | inhibition at 80 µg/mL (E. coli pol IIIE): 1.7%; Percent Enzymatic Inhibition B. subtilis pol IIIC (B. subtilis pol IIIC): Inactive
COc1ccc(C=NNC(=O)c2cc(-c3ccc(Cl)cc3)n[nH]2)cc1OC [Compound 15] | – | – | – | – | – | – | – | – | – | – | Inactive | – | – | – | – | – | – | – | – | Minimum Inhibitory Concentration for Bacterial Growth, Sm (S. aureus Smith strain): >80 µg/mL; Minimum Inhibitory Concentration for Bacterial Growth, Efcl [2]: >80 µg/mL; Minimum Inhibitory Concentration for Bacterial Growth, Bs [3]: >80 µg/mL; Minimum Inhibitory Concentration for Bacterial Growth, Efcm [4]: 40 µg/mL; Minimum Inhibitory Concentration for Bacterial Growth, VRE [5]: >80 µg/mL; Minimum Inhibitory Concentration for Bacterial Growth, MRSA [6]: >80 µg/mL; Percent Enzymatic Inhibition B. subtilis pol IIIE (B. subtilis pol IIIE [7]; [13]): 13.7%; Minimum Inhibitory Concentration for Bacterial Growth, Ec [8]: >80 µg/mL; Minimum Inhibitory Concentration for Bacterial Growth, Sa ([9]; 16 to 18 hours): 8 µg/mL; Percent Enzymatic Inhibition B. subtilis pol IIIC (B. subtilis pol IIIC): Inactive
CCOc1cc(C=NNC(=O)c2cc(-c3cccc(OC)c3)n[nH]2)ccc1O [Compound 3] | 40 (≈ 105 µM) | 124 | 222 | 311 | 80 (≈ 210 µM) | > 80 | 80 (≈ 210 µM) | 40 (≈ 105 µM) | 40 (≈ 105 µM) | > 20 | Inactive | > 80 | 20 (≈ 52.6 µM) | 5.3 | 141 | 563 | 301 | Inactive | – | B. subtilis Pol IIIE IC50, 4 dNTPs (B. subtilis pol IIIE [7]): Inactive
